Among the data in patent US5369120A, “Pharmaceutical composition of 7-((substituted)amino-8-((substituted)carbonyl)-(methylamino)-1-oxasp iro(4,5)decanes and L-dopa” (Warner-Lambert Company, priority 1993, dated 1994) are Locomotor scores values, retold here.

The assay deals with rats rendered Parkinsonian by injection of reserpine. The experiment in a line: locomotor activity and rigidity in reserpine-treated Parkinsonian rats. The class given is in vivo, rat. The settings on record: reserpine (4 mg/kg) rats; L-DOPA 80 mg/kg intraperitoneal, subthreshold dose.

Regarding `N[C@@H](Cc1ccc(O)c(O)c1)C(=O)O` [L-DOPA, 3-(3,4-dihydroxyphenyl)L-alanine], the Locomotor scores entry is on record as “very low locomotor scores”.
